Measured values from patent publication US20230255939A1, “Antimicrobial Agent for Non-Human Animal” (ISHIHARA SANGYO KAISHA, LTD, priority 2020, published 2023).
In brackets after ≈: the same amount, converted by molar mass. Like-named read-outs stand apart in the source and are kept apart here.

Key:
Type in all cases: cell-based
[1] = tested on: Microsporum canis (IFM63627); assay: Antifungal activity test, minimum inhibitory concentration (Test Example 7); details: Sabouraud medium, 32° C. for 72 hours, read-out: Minimum inhibitory concentration (MIC100)
Protocol: Test Example 7: Antifungal Activity Test
(§1) Test Compound: Compound No. 6
(§2) Test Microbial Strain: Microsporum Canis (IFM63627)
The antifungal activity was studied by partially modifying the method of Test Example 5. Microsporum canis was cultured at 32° C. for 168 hours in a ⅒ Sabouraud medium to form spores, then 10 mL of physiological saline (Otsuka Normal Saline; containing 9 g of sodium chloride in 1000 mL) was added directly onto the medium, and the surface was rubbed using a disposable loop (type 1 (1 µL)) to recover a spore suspension containing hyphae. The spore suspension containing hyphae was filtered through a cell strainer (φ40 µm). The spores were recovered from the filtrate by centrifugation (3500 rpm, 5 minutes) and washed twice with physiological saline, and then a spore suspension was prepared (1 × 10^7 spores/mL). 10 µL of the spore suspension was inoculated into a Sabouraud medium to which the test compound dissolved in DMSO was added to have a predetermined concentration. Microsporum canis was cultured at 32° C. for 72 hours, then the presence or absence of colony growth was investigated, and the minimum inhibitory concentration (MIC100) was determined.

[2] = tested on: Staphylococcus pseudointermedius (JCM 17571); assay: Antimicrobial activity test, minimum bactericidal concentration after 1 minute contact (Test Example 6); details: JCM17571, S. pseudintermedius JCM 17571, then LB medium 30° C. for 72 hours, read-out: Minimum bactericidal concentration (MBC100)
Protocol: Test Example 6: Antimicrobial Activity test Test Compound: Compound No. 6 Test Microbial Strain: Staphylococcus Pseudointermedius (JCM 17571) The staphylococcus (Staphylococcus pseudointermedius) cultured for 24 hours on a Luria Broth (LB) agar medium plate (peptone, yeast extract, sodium chloride, agar, Invitrogen) was suspended in physiological saline, and a suspension thereof was prepared in such a way as to have an absorbance of 0.025 at 600 nm. Thereto, the test compound dissolved in DMSO was added in such a way as to provide a final concentration of 200, 100, 50, or 25 ppm, and after 1 minute, 10 µL of the suspension and 10 mL of physiological saline were placed in a syringe and stirred, and the syringe was connected to a 37 mm Quality Monitor (manufactured by Pall Corporation) followed by filtration and washing twice with 10 mL of physiological saline. The membrane filter was impregnated as it was with an LB medium and subjected to culturing at 30° C. for 72 hours, the presence or absence of colony growth was investigated, and the minimum bactericidal concentration (MBC100) was determined.

[3] = tested on: Microsporum canis (IFM63627); assay: Antifungal activity test, minimum fungicidal concentration on spores (Test Example 8); details: read-out: Minimum fungicidal concentration (MFC100)
Protocol: Test Example 8: Antifungal Activity Test
as §1, §2
Microsporum canis was cultured at 32° C. for 168 hours in a ⅒ Sabouraud medium to form spores, then 10 mL of physiological saline (Otsuka Normal Saline; containing 9 g of sodium chloride in 1000 mL) was added directly onto the medium, and the surface was rubbed using a disposable loop (type 1 (1 µL)) to recover a spore suspension containing hyphae. The spore suspension containing hyphae was filtered through a cell strainer (φ40 µm). The spores were recovered from the filtrate by centrifugation (3500 rpm, 5 minutes) and washed twice with physiological saline, and then a spore suspension was prepared (1 × 10^7 spores/mL). 10 µL of the spore suspension was inoculated into 90 µL of physiological saline to which compound No. 6 dissolved in DMSO was added to have a predetermined concentration. […] The 10-µL spore suspension was spotted onto a Sabouraud medium and subjected to culturing at 32° C. for 72 hours, the presence or absence of colony growth was investigated, and the minimum fungicidal concentration (MFC100) was determined.

[4] = tested on: Microsporum canis (TIMM20080 strain); assay: Antimicrobial activity test, minimum inhibitory concentration (Test Example 4); details: Sabouraud media, 28° C. for 72 hours
Protocol: Test Example 4: Antimicrobial Activity Test Test Compound: Compound No. 1
Test Microbial Strain: Microsporum Canis (TIMM20080 Strain)
The microbial strain was cultured in a Sabouraud medium containing 500 µg/mL of cycloheximide and 50 µg/mL of chloramphenicol at 28° C. for 8 days, then spores were collected in physiological saline containing Tween80 (0.05% (v/v)), this was filtered through a cell strainer (φ40 µm), the spores were recovered from the filtrate by centrifugation (3500 rpm, 5 minutes) and washed twice with physiological saline, and then a spore suspension was prepared (1 × 10^7 spores/mL). 10 µL of the spore suspension was inoculated into Sabouraud media to which compound No. 1 dissolved in DMSO was added to have various concentrations. After culturing at 28° C. for 72 hours, the amount of microbial growth was investigated, and the minimum inhibitory concentration was determined.

[5] = tested on: Malassezia pachydermatis (IFM56528 strain); assay: Antimicrobial activity test: colony formation inhibition after 1 minute contact (Test Examples 1 and 2); details: M. pachydermatis IFM56528, final concentration 500 ppm, then culturing at 32° C. for 72 hours, read-out: Colony formation inhibition rate (%)
Protocol: Test microbial strain: Malassezia pachydermatis (IFM56528 strain, strain obtained from Chiba University) The Malassezia microbe (Malassezia pachydermatis) cultured for 5 to 7 days in a Sabouraud medium (1% peptone, 4% dextrin, 1.5% agar) supplemented with 0.5% of Tween 40 (polyoxyethylene sorbitan monopalmitate: manufactured by Kanto Chemical Co., Inc.) was suspended in physiological saline and a suspension thereof was prepared in such a way as to have an absorbance of 0.25 at 550 nm. […] Colony formation inhibition rate (%) = [(number of colonies in non-agent treated plot - number of colonies in inventive plot)/number of colonies in non-agent treated plot] × 100 Test compound: Compound No. 1 (final concentration of 500 ppm) Test microbial strains: Malassezia pachydermatis (IFM56528 strain), M. furfur (IMF55951 strain), M. sympodialis (IMF48588 strain), M. globosa (IMF51946 strain), and M. restricta (IMF55992 strain) The colony formation inhibition rate for each of the test strains was determined by the same method as in Test Example 1.

Work on `Cc1ccc(-c2nc(C#N)[nH]c2Cl)cc1Cl` [Compound No. 6, 5-chloro-4-(3-chloro-4-methylphenyl)-1H-imidazole-2-carbonitrile] yielded an MIC [1] of 5 mg/L (≈ 19.8 µM), an MBC [2] of 50 mg/L (≈ 198 µM) and an MFC ([3]; treatment time 24 Hours) of 50 mg/L (≈ 198 µM). For the same molecule, the MFC ([3]; treatment time 96 Hours) was 10 mg/L (≈ 39.7 µM).

With `Cc1ccc(-c2nc(C#N)[nH]c2Cl)cc1` [Compound No. 1, 5-Chloro-4-(4-methylphenyl)-1H-imidazole-2-carbonitrile] the MIC [4] was 10 mg/L (≈ 45.9 µM) and the inhibition at 500 ppm [5] was 100%.
